{"source": "patent US20230390223A1", "about": "“ADMINISTRATION OF […] COMPOSITIONS FOR TREATING NERVOUS SYSTEM DISORDERS” (PaxMedica, Inc., priority 2020, published 2023)", "key": {"mouse model of epilepsy": {"system": "mouse model of epilepsy", "conditions": "cited from earlier work"}, "[1]": {"system": "B6.129P2-Fmr1tm1Cgr/J transgenic (TG) mice", "assay": "Light/dark preference test (LDT), anxiety-like behavior, SmartCage", "assay_type": "in vivo", "description": "The light/dark preference test (LDT) is one of the most widely used tests in pharmacology to measure unconditioned anxiety-like behavior in mice. The test is based on the natural aversion of mice to brightly illuminated areas and on their spontaneous exploratory behavior in response to a novel environment and light. See, Takao, K., et al., Light/dark Transition Test for Mice. J. Vis. Exp. (1), e104, doi:10.3791/104 (2006).\nThis study used a SmartCage™ system, which is an automated non-invasive rodent behavioral monitoring system which enables biomedical researchers to conduct a variety of neurobehavioral assays through consistent and accurate monitoring of rodent home cage activity and behavior. See, Xie X. S. et al. (2012) Rodent Behavioral Assessment in the Home Cage Using the SmartCage™™ System. In: Chen J., Xu X M., Xu Z., Zhang J. (eds) Animal Models of Acute Neurological Injuries II. Springer Protocols Handbooks. Humana Press, Totowa, NJ.\n• 1. N=6 mice per group. • 2. All behavioral testing included a group of untreated wild type controls. • 3. Dosing for the various groups were as follows: • a. […] Group 2: IP saline, […], administered weekly to animals beginning at 9 weeks of age and continuing for four weeks (i.e. given at Age Weeks 9, 10, 11 and 12). • c. […] Behavioral tests for all groups (Groups 1-5) began the following day after the last day of IN dosing (Weeks 13-14 of age). • 2. Blood samples (PK testing) were collected from all mice at the end of 12 Weeks of age, just prior to starting the behavioral tests in Week 13. • 3. Brain tissue (for biochemistry testing) was harvested from all mice upon sacrifice at the conclusion of all behavioral testing at the end of 13-14 Weeks of age.\n(§1) Male B6.129P2-Fmr1tm1Cgr/J TG mice were purchased from Jackson Laboratories, Bar Harbor, Maine. These mice were of approximately 8(±1) weeks of age. […] Mice accommodated to the research facility for the remainder of the week. Dosing began on the following Monday. Body weights of all mice were recorded for health monitoring purposes.\nDosing was carried out over the course of 28 days as instructed by the study sponsor. • 1. Prior to the beginning of the light/dark test, a dark box (red transparent enclosure with an opening for the mouse to enter) is placed in the SmartCage™. • 2. An individual mouse is placed in the open/non-dark box side (“Light Zone”), with its head facing away from the dark box. • 3. The mouse is then allowed to freely explore the SmartCage™ and enter the dark box “Dark Zone” at its own discretion over a 10-minute span. • 4. Anxiety-like behavior is assessed based on the SmartCage™ monitoring of time spent in the Light Zone, the number of Light Zone entries, and % Time Spent in the Light Zone. • 5. […] Wildtype Control data (collected separately prior to the beginning […] of the B6.129P2-Fmr1tm1Cgr/J TG mice) was added to the final data analysis to serve as a comparison for naive, male C57BL/6 mice.\nNo food or water is withheld and only natural stressors such as light are used. Four similarly calibrated SmartCages™ were used to record four mice simultaneously (example cage shown below). All Light/Dark tests were completed in one day.\nLight/Dark Test Setup—Dark Box placed within the transparent homecage; homecage placed within the SmartCage™ monitoring system."}, "[2]": {"system": "B6.129P2-Fmr1tm1Cgr/J transgenic (TG) mice", "assay": "Locomotor activity test, SmartCage ~24 h recording", "assay_type": "in vivo", "conditions": "for Active time: versus WT control group"}, "[3]": {"system": "B6.129P2-Fmr1tm1Cgr/J transgenic (TG) mice", "assay": "Step through passive avoidance test (learning and memory)", "assay_type": "in vivo", "description": "The Passive Avoidance task is useful for evaluating the effect of novel chemical entities on learning and memory as well as studying the mechanisms involved in rodent models of CNS disorders. In this test, the test chamber is divided into a lighted compartment and a dark compartment, with a gate between the two. The test animals explored both compartments on the first day. The next day, they are given a mild foot shock in the dark compartment and they will learn to associate the dark compartment with the foot shock. In order to test their learning and memory, the mice are then placed back in the lighted compartment. Passive avoidance behavior of rodents is defined as the suppression of their innate preference for the dark compartment. Mice with normal learning and memory will avoid entering the dark chamber. Learning and memory from the previous day is measured by recording the latency to cross through the gate between the two compartments. See, J. David Sweatt, Chapter 4: Rodent Behavioral Learning and Memory Models, Editor: J. David Sweatt. Mechanisms of Memory (Second Edition), Academic Press, 2010, Pages 76-103, ISBN 9780123749512.\nThis study used a SmartCage™ system, which is an automated non-invasive rodent behavioral monitoring system which enables biomedical researchers to conduct a variety of neurobehavioral assays through consistent and accurate monitoring of rodent home cage activity and behavior. See, Xie et al, 2012.\n• 1. N=6 mice per group. • 2. All behavioral testing included a group of untreated wild type (WT) controls. • 3. Dosing for the various groups were as follows: • a. […] Group 2: IP saline, […], administered weekly to animals beginning at 9 weeks of age and continuing for four weeks (i.e. given at Age Weeks 9, 10, 11 and 12). • c. […] Behavioral tests for all groups (Groups 1-5) began the following day after the last day of IN dosing (Weeks 13-14 of age). • 2. Blood samples (for PK testing) were collected from all mice at the end of Week 12 of age, just prior to starting the behavioral tests in Week 13 of age. • 3. Brain tissue (for biochemistry testing) was harvested from all mice upon sacrifice at the conclusion of all behavioral testing at the end of Week 13-14 of age.\nas §1, with “TG (TG)” for “TG”, “8 (±1)” for “8(±1)”\nDosing was carried out over the course of 28 days as instructed by the study Sponsor. […]"}, "[4]": {"assay": "Determination of suramin in plasma and brain tissue after IP or IN administration", "assay_type": "in vivo, mice", "conditions": "for Kp: male, Fmr1-knockout B6.129P2-Fmr1tm1Cgr/J, mouse, brain/plasma, other: intranasal, 100 mg/mL, read-out: Average Brain Tissue to Plasma Partitioning Ratio", "description": "For the study, male Fmr1-knockout B6.129P2-Fmr1tm1Cgr/J TG mice were purchased from Jackson Laboratories, Bar Harbor, Maine. These mice were of approximately 8 weeks of age. […] The absence of FMRP in these mice induces an over-activation of RAC1, a protein of the Rho GTPase subfamily that plays a critical role in dendritic morphology and synaptic function. These B6.129P2-Fmr1tm1Cgr/J TG mice, provide an animal model for cognitive disabilities and neurodevelopmental disorders.\nMice were accommodated to the research facility for approximately a week. Body weights of all mice were recorded for health monitoring purposes.\nThe remaining ingredients, except the cyclodextrin are added with mixing. The cyclodextrin is then added with mixing until dissolved. The resultant solution is allowed to sit for 2 hours before using.\nBlood samples were collected from all mice at the end of 12 weeks of age. Brain tissue was harvested from all mice upon sacrifice 13-14 weeks of age. Standard sample preparation and analytical techniques were used to obtain the data."}, "[5]": {"conditions": "10-minute test, suramin IN weekly (100 mg/mL, one spray per nostril, 4 weeks)"}, "[6]": {"conditions": "suramin IP 20 mg/kg weekly for four weeks"}, "[7]": {"conditions": "5-minute test, suramin IP 20 mg/kg weekly for four weeks"}, "[8]": {"conditions": "10-minute test, group regimens: A-804598 IP 30 mg/kg/day, tangeretin IP 10 mg/kg/day, emodin+piperine PO 20 mg/kg each twice per day"}}, "note": "Values joined by “and” are separate entries in the source; they are usually repeats but may differ in a detail not shown here. Equal values may be shown once. Read-outs that look alike come from different tables or passages of the source.", "data": [{"compound": "O=C(NCC1(N2CCN(c3ccccc3)CC2)CCOCC1)c1cccnc1Sc1ccccc1", "note": "[JNJ-47965567, 2-(Phenylthio)-N-[[tetrahydro-4-(4-phenyl-1-piperazinyl)-2H-pyran-4-yl]methyl]-3-pyridinecarboxamide]", "values": [{"measurement": "effect on epileptic seizures", "setting": "mouse model of epilepsy", "value": "suppress epileptic seizures"}]}, {"compound": "C[C@H](N/C(=N/C#N)Nc1cccc2ncccc12)c1ccccc1", "note": "[Formulation A-804598, N-Cyano-N″-[(1S)-1-phenylethyl]-N′-5-quinolinyl-guanidine]", "values": [{"measurement": "number of Light Zone entries", "setting": "[1]; 10-minute test, each group at its regimen, compared to WT mice", "value": "significantly lower number of light zone entries"}]}, {"compound": "Cc1ccc(C(=O)Nc2ccc(S(=O)(=O)O)c3cc(S(=O)(=O)O)cc(S(=O)(=O)O)c23)cc1NC(=O)c1cccc(NC(=O)Nc2cccc(C(=O)Nc3cc(C(=O)Nc4ccc(S(=O)(=O)O)c5cc(S(=O)(=O)O)cc(S(=O)(=O)O)c45)ccc3C)c2)c1", "note": "[suramin, 1,3,5-Naphthalenetrisulfonic acid, 8,8′-[carbonylbis[imino-3,1-phenylenecarbonylimino(4-methyl-3,1-phenylene)carbonylimino]]bis-]", "values": [{"measurement": "percentage of time spent in the Light Zone", "setting": "[1]; [5]", "value": "higher percentage of time spent in the Light Zone"}, {"measurement": "total time spent in the light zone", "setting": "[1]; [5]", "value": "~6.5", "unit": "min"}, {"measurement": "Dark Zone entry latency", "setting": "[1]; all IN suramin groups (daily, every other day, weekly; 100 mg/mL, one spray per nostril, 28 days)", "value": "60 to 65", "unit": "s"}, {"measurement": "Dark Zone entry latency", "setting": "[1]; [6]", "value": "30 to 40", "unit": "s"}, {"measurement": "Active time", "setting": "[2]; all IN Suramin groups (Daily, Weekly, Every 2 Days)", "value": "greater activity compared to the WT control group"}, {"measurement": "Rearing count", "setting": "[2]; suramin IN every 2 days, versus WT control", "value": "comparable to the WT control group"}, {"measurement": "percentage of time spent in the light zone on the test day", "setting": "[3]; [7]", "value": "approximately 50%"}, {"measurement": "total light zone time on the test day", "setting": "[3]; [7]", "value": "lower total time"}, {"measurement": "Dark Zone entry latency, Test Day (24 h post-foot shock)", "setting": "[3]; [6]", "value": "shortest latency for entering the dark compartment"}, {"measurement": "Average Plasma Concentration", "setting": "[4]; Group 1: IP 20 mg/kg weekly for four weeks, blood at end of 12 weeks of age, 20 mg/kg", "value": "18733 ng/ml and 14.440 μM"}, {"measurement": "Average Plasma Concentration", "setting": "[4]; Group 3: IN formulation 100 mg/mL, one spray per nostril, one time per day for 28 days", "value": "1637 ng/ml and 1.262 μM"}, {"measurement": "Average Plasma Concentration", "setting": "[4]; Group 4: IN formulation 100 mg/mL, one spray per nostril, every other day for 28 days", "value": "1578 ng/ml and 1.217 μM"}, {"measurement": "Average Plasma Concentration", "setting": "[4]; Group 5: IN formulation 100 mg/mL, one spray per nostril, one time every week for 4 weeks", "value": "278.7 ng/ml and 0.215 μM"}, {"measurement": "Kp", "setting": "[4]; one spray per nostril, Group 3: IN formulation 100 mg/mL, one spray per nostril, one time per day for 28 days", "value": 0.069}, {"measurement": "Kp", "setting": "[4]; one spray per nostril, Group 4: IN formulation 100 mg/mL, one spray per nostril, every other day for 28 days", "value": 0.089}, {"measurement": "Kp", "setting": "[4]; one spray per nostril, Group 5: IN formulation 100 mg/mL, one spray per nostril, one time every week for 4 weeks", "value": 0.235}]}, {"compound": "COc1ccc(-c2cc(=O)c3c(OC)c(OC)c(OC)c(OC)c3o2)cc1", "note": "[Tangeretin, 5,6,7,8-tetramethoxy-2-(4-methoxyphenyl)-4H-1-benzopyran-4-one]", "values": [{"measurement": "percentage of time spent in the Light Zone", "setting": "[1]; [8]", "value": "higher percentage of time spent in the Light Zone"}, {"measurement": "total time spent in the light zone", "setting": "[1]; [8]", "value": "~6.5", "unit": "min"}, {"measurement": "Active time", "setting": "[2]; A-804598 IP 30 mg/kg/day, tangeretin IP 10 mg/kg/day", "value": "greater activity compared to the WT control group"}, {"measurement": "total number of Dark Zone Entries", "setting": "[3]; test day, tangeretin IP 10 mg/kg/day, emodin+piperine PO 20 mg/kg each twice per day, other groups at their regimens", "value": "one"}]}]}
